Experimental data as given in patent US9750784B2 (priority 2013, dated 2017).
One block for each molecule: values may come before it. Square brackets hold non-standard residues; d marks the D form. Peptide text beside a SMILES is read from it. * marks the point of attachment. Sta = CC(C)C[C@H](N)[C@@H](O)CC(=O)O; Isovaleryl = CC(C)CC(=O)*

Legend:
[1] = test system: ACLT tMx arthrosis model; test: Efficacy in vivo in arthrosis, ACLT tMx model; parameters: species or system rats; settings: rat ACLT tMx, 1 mg in 30 μl intraarticular, 6 weeks, histological assessment
Procedure: Rats were selected as experimental animals. After shaving and disinfection, the operation area is opened by means of a medial skin cut with a length of about 1 cm. The knee joint capsule is prepared and the medial patellar ligament is exposed. After opening of the joint capsule, cutting of the medial parapatellar ligaments and lateral displacement of the patella, the anterior cruciate ligament is cut using a curved knife with a blunt end (ACLT=anterior cruciate ligament transection). The anterior and posterior ligaments holding the meniscus in place are subsequently prepared and cut and the meniscus is removed tMx (resection of the medial meniscus). After repositioning of the patella, the joint is finally rinsed with sterile saline solution in order to remove any blood coagulum that may have formed. The patella is repositioned, and the medial patellar ligament is re-fixed by means of continuous suture with sealing of the capsule. The muscles are likewise sutured. The skin is subsequently closed by means of single stitches. The operation duration is about 10 minutes. The postoperative trial duration was 6 weeks. For intraarticular injection, the animals are anaesthetised with 1.5-2% by vol. of isoflurane. […] Two sections in the region of the exposure zone were selected from each animal and assessed by two experienced people using an assessment system. […]

[2] = In vivo joint microdialysis in guinea pig knee joint; parameters: species or system guinea pigs (Dunkin Hartley); settings: 1 mg/joint in 50 μl as suspension, microdialysis eluates
Procedure: (§1) For these investigations, microdialysis probes from CMA (reference number 000082; CMA 7; microdialysis sample 1 mm 3/pkg) fitted with a cuprophane membrane and having a pore size of 6 kDa were used. The eluate flow rate was 0.5 μl/min.

[3] = test system: carrageenan-induced inflammation of the rat knee joint; test: Anti-hyperalgesic action in animals (carrageenan injected intraarticularly into rat knee joint, Hargreaves test); format: in vivo; settings: intraarticular 30 minutes before CAR
Procedure: In order to induce an inflammation reaction, a carrageenan solution (CAR, 1%, 50 μl) was injected intraarticularly on one side into a rat knee joint. The uninjected side was used for control purposes. Six animals per group were used. The […] was determined by means of a micrometer screw (medial-lateral on the knee joint), and the thermal hyperalgesia was determined by means of a directed infrared light source by the Hargreaves method (Hargreaves et al. 1988) on the sole of the foot. Since the site of inflammation (knee joint) is different from the site of measurement (sole of the paw), use is made here of the term secondary thermal hyperalgesia, the mechanisms of which is of importance for the discovery of effective analgesics.
Experimental description of thermal hyperalgesia (Hargreaves test): the experimental animal is placed in a plastic chamber on a quartz sheet. Before testing, the experimental animal is firstly given about 5-15 minutes time to familiarise itself with the environment. […] Light reflected by the paw is recorded as long as the experimental animal sits still. Withdrawal of the paw interrupts this reflection, after which the infrared light source is switched off and the time from switching on to switching off is recorded. […]

[4] = Stability of pepstatin in bovine synovial fluid; format: in vitro ADME; settings: pooled bovine synovial fluid, 37° C., initial 1 μM
Procedure: In order to check the stability of individual compounds, a pool of 4 different bovine synovial fluids is mixed. To this end, about 1 ml per SF are used. The mixture is prepared directly in a 5 ml glass vessel in order to minimise any absorption effects. The SFs are mixed thoroughly, but carefully. No air bubbles or foam should form. To this end, a vortex unit is used at the lowest speed. The compounds to be tested are tested in an initial concentration (unless requested otherwise) of 1 μM. After addition of the substance, the batch is again mixed thoroughly and carefully. For visual monitoring, all SF batches are photographed, and the pictures are filed in the eLabBio file for the corresponding experiment. The batches are incubated in the incubator for 48 h at 37° C. and 7.5% CO2.
The sampling is carried out after the pre-agreed times (unless requested otherwise, see below). 4×200 μl of the SF are removed from the mixture at each point in time and transferred directly into 0.5 ml “low-binding” Eppendorf vessels. […]
The samples are stored in “low-binding” Eppendorf vessels at −20° C. The samples are subsequently measured quantitatively. […]
The concentrations measured (ng/ml) are plotted against time in a graph (Graph Pad Prism®). The percentage stability of the substance is determined here. […]

[5] = biological target: T1, cathepsin D isolated from the human liver (Homo sapiens, UniProt P07339); test: In-vitro fluorescence assay for identification of cathepsin D inhibitors; format: biochemical; settings: pH 5.5
T1 construct: cathepsin D isolated from the human liver (Sigma-Aldrich); purchased Sigma-Aldrich; host or cells: human liver (tissue-derived)
Procedure: In order to identify modulators of cathepsin D activity, a continuous enzymatic test was carried out with a synthetic peptide which carries a fluorescent group (MCA=(7-methoxycoumarin-4-yl)acetyl) which is quenched by energy transfer from a Dpn (2,4 dinitrophenyl) group on the same molecule, in Greiner 384-well nb microtitre plates. Cleavage of the peptidic substrate by cathepsin D causes an increase in the fluorescence intensity. In order to determine the efficacy of substances, the time-dependent increase in the fluorescence intensity in the presence of the substance was compared with the time-dependent increase in fluorescence in the absence of substances. […] The enzyme employed was cathepsin D isolated from the human liver (Sigma-Aldrich) in a final concentration of 1.4 nM. The test was carried out in 100 mM sodium acetate buffer, 1.25% (v/v) of DMSO, 0.25% (w/v) of Chaps, pH 5.5. […] After carrying out a starting-point fluorescence measurement (excitation wavelength 340 nm/emission wavelength 450 nm) using an Envision multilabel reader (Perkin Elmer), the reaction was incubated at room temperature for 60 min. The amount of peptide fragment cleaved off during the reaction time was subsequently measured by determination of the increase in the fluorescence intensity at 450 nm (excitation wavelength 340 nm).

[6] = Pharmacokinetic data after intravenous and oral administration; format: in vivo, Wistar rats; settings: Wistar rat
Procedure: The test substances were dissolved in DMSO/PEG200/water (2/60/38 v/v) with a final concentration of 0.8 mg/ml, and a dose of 0.2 mg/kg i.v. and 0.5 mg/kg orally was administered. […] The blood samples were collected in centrifuge tubes containing Li heparin and centrifuged at about 10,000 g at 4° C. for 3 min. The plasma obtained therefrom was immediately frozen at −20° C. and stored until analysis. The plasma concentrations were determined by means of a standard LC-MS/MS method. The pharmacokinetic parameters (Clp, Vss, T1/2, F) were determined via an NCA analysis.

[7] = In vitro microdialysis in bovine synovial fluid; format: in vitro ADME; settings: 3 mg per ml, 6 kDa membrane
Description: Since the synovial fluid on the one hand represents a complex matrix for the analytical determination of peptides and on the other hand only the free, i.e. non-protein-bound medicament fraction is relevant for the action, the microdialysis method was employed. The eluate obtained from the microdialysis enables analysis of free medicament levels from the complex matrix of the synovial fluid. The reason for this is that a barrier membrane (microdialysis membrane) which only molecules up to a certain size is able to pass through is employed. This “pore size” determines the concentration of the medicament in the eluate besides the flow rate of the eluate and the free concentration of medicament present in the synovial fluid as driving force for material exchange.
as §1
Firstly, release kinetics in bovine synovial fluid were investigated and compared with triamcinolone (Triam Injekt® 20 mg)—a medicament approved for intraarticular injection. […] 3 mg of medicament per ml of synovial fluid were employed in a glass vessel, which corresponds approximately to the concentration conditions after intraarticular injection into the knee joint.

[8] = test system: cartilage explant cultures; settings: pH 5.5, explant cultures (mouse, cow or human); cited from earlier work
[9] = Cartilage penetration; format: in vitro ADME
[10] = Pharmacokinetic data after intraarticular injection; format: in vivo, Lister hooded rats; settings: for Average joint diameter [mm]: rat knee, about 700 μg suspension intraarticular
Procedure: For this study (KK-Rat-12-003), 14 male Lister hooded rats were used. All rats were given a single intraarticular injection into both knee joints at time “0”. An injection consisted of 30 μl in which about 700 μg of compound were homogeneously suspended (suspension=compound in 0.5% Methocel K4M with 0.25% Tween20 in PBS). The suspension was administered via a 25 G cannula. […] At each point in time indicated in Table 2, animals were sacrificed, the knee joints were prepared (removal of skin and muscle tissue) and frozen for further processing.
The deep-frozen joints were briefly thawed, comminuted as well as possible using bone scissors, and 4 times the volume of 80% ethanol was subsequently added. The mixture was subsequently homogenised using an Ultraturrax, the extract was shaken at RT for 20 min and then stored at −20° C. for at least 30 min. The mixture was then centrifuged at 13,000 rpm for 5 min, a 10 μl aliquot of the supernatant was diluted 1:5000 with internal standard solution, transferred into a PCR plate and analysed.
20 μl of internal standard solution were added to 20 μl of plasma, 100 μl of methanol were added, and the mixture was shaken for 5 min. The extracts were then stored at −20° C. for at least 30 min and subsequently centrifuged at 13,000 rpm for 5 min. 80 μl of the supernatant were transferred into a PCR plate and analysed.
All samples were analysed with the aid of a UPLC-MS/MS system.

[11] = Toxicity and genotoxicity
[12] = pooled synovial fluid of patients, Powell et al. Table II; cited from earlier work

T1 sequence (P07339 65-161 limits assumed): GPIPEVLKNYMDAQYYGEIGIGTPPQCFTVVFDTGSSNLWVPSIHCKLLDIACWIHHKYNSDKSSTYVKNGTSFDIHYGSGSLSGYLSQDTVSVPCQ
T1 sequence (P07339 169-412 limits assumed): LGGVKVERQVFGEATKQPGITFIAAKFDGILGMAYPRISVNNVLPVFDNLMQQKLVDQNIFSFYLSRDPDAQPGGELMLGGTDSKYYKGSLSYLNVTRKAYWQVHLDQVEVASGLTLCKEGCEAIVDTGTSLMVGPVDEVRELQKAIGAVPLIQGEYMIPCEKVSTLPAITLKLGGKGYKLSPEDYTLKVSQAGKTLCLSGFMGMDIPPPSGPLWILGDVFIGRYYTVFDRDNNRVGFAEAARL

time after intraarticular injection up to which significant levels are detectable in the joint [2]: up to 14 days | period of stability in synovial fluid [4]: at least two weeks | inhibition of cathepsin D (in words) [5]: nanomolar range | plasma concentrations after oral administration ([6]; 0.5 mg/kg orally): below the detection limit | clearance ([6]; i.v. 0.2 mg/kg): > 100 % liver blood flow | distribution volume ([6]; i.v. 0.2 mg/kg): average | half-life ([6]; male, plasma, iv, i.v. 0.2 mg/kg): ~8.4 min | levels of unbound medicament in microdialysis eluate [7]: very high levels | cartilage penetration [9]: good | Average joint diameter [mm] ([10]; 0 days after injection): 10.08 mm | Average joint diameter [mm] ([10]; 1 day after injection): 10.88 mm | Average joint diameter [mm] ([10]; 2 days after injection): 10.50 mm | Average joint diameter [mm] ([10]; 4 days after injection): 10.12 mm | Average joint diameter [mm] ([10]; 7 days after injection): 10.35 mm | Average joint diameter [mm] ([10]; 9 days after injection): 10.14 mm | Average joint diameter [mm] ([10]; 11 days after injection): 10.37 mm | Average joint diameter [mm] ([10]; 13 days after injection): 10.24 mm | Average joint diameter [mm] ([10]; 15 days after injection): 10.45 mm | Average joint diameter [mm] ([10]; 20 days after injection): 10.18 mm | Average joint diameter [mm] ([10]; 27 days after injection): 10.50 mm | systemic exposure ([10]; rat, intraarticular administration of a suspension): very low | time after administration up to which detectable in the plasma ([10]; rat, intraarticular suspension, very low concentration): up to 28 days
Molecule: CC(C)CC(=O)N[C@H](C(=O)N[C@H](C(=O)N[C@@H](CC(C)C)[C@@H](O)CC(=O)N[C@@H](C)C(=O)N[C@@H](CC(C)C)[C@@H](O)CC(=O)O)C(C)C)C(C)C [Pepstatin, (3S,4S)-3-hydroxy-4-[(S)-2-((3S,4S)-3-hydroxy-6-methyl-4-{(S)-3-methyl-2-[(S)-3-methyl-2-(3-methyl-butyrylamino)butyrylamino]butyrylamino}heptanoylamino)-propionylamino]-6-methylheptanoic acid] (Isovaleryl-VV[Sta]A[Sta]-OH)
efficacy in vivo in arthrosis [1]: significant efficacy | reduction of thermal hyperalgesia ([3]; rat, Hargreaves test): able to reduce the extent of thermal hyperalgesia as a function of the dose | inhibition of autodigestion of the cartilage [8]: inhibited virtually completely | changes of in-life parameters (body weight, knee swelling, relieving postures) ([10]; rat, single intraarticular injection of about 700 μg suspension into both knee joints): No peculiarities | toxicity or genotoxicity [11]: no measurable toxicity or genotoxicity

Molecule: C[C@]12C=CC(=O)C=C1CC[C@H]1[C@@H]3C[C@@H](O)[C@](O)(C(=O)CO)[C@@]3(C)C[C@H](O)[C@@]12F [TAC, Triamcinolone, reference compound]
reduction of CAR-induced swelling ([3]; rat knee joint, TAC 10 μg/joint): capable of reducing

Molecule: CC(C)c1nc(CN(C)C(=O)N[C@H](C(=O)N[C@@H](Cc2ccccc2)C[C@H](O)[C@H](Cc2ccccc2)NC(=O)OCc2cncs2)C(C)C)cs1 [ritonavir, reference compound]
inhibition of autodigestion of the cartilage [8]: inhibited virtually completely

Molecule: pertussis toxin
half life in synovial fluid [12]: barely two days
